Measured values taken from article PMC4864350, “Fluorogenic Substrates for In Situ Monitoring of Caspase-3 Activity in Live Cells” (PLoS ONE, 2016).
*: point of attachment. MethylRed = CN(C)c1ccc(/N=N/c2ccccc2C(=O)*)cc1; FAM = 5(6)-carboxyfluorescein; peptoid = not defined here; Ahx = NCCCCCC(=O)O

Tests used:
[1] = test system: HEK293T cells; assay: Flow cytometry detection of caspase-3 activity in live cells; type: cell-based; details: 27 at 10 μM, 5 h
Method: Fig 4 Flow cytometry analysis of healthy and apoptotic HEK293T cells treated with substrate 27. The cells were incubated 5 h with fluorogenic substrate 27 (10 μM), detached, and analysed by flow cytometry (λEx/Em 488/530 nm, x-axis = fluorescence intensity). (A) Healthy, non-apoptotic cells. (B) Apoptotic cells (induced by 1 μM staurosporine). TEXT PRINTED IN THE PICTURE: (A) no label printed: FITC - 92.7%; FITC + 7.28% | (B) no label printed: FITC - 1.57%; FITC + 98.4% […]
Cell culture was performed in a Heracell 150 incubator (Heraeus) and in a Herasafe KS 18 class II negative-flow cabinet (Heraeus). HEK293T and MCF-7 cells (cultured in high glucose (4.5 mg/mL) DMEM supplemented with 4 mM glutamine, 100 units/mL penicillin, 10 mg/mL streptomycin and 25 mg/mL amphotericin B, and 10% FBS) were seeded onto a 48-well plate at a density of 10^4 cells per well. After 12 hours, the media was removed and substrates 1–14 added at 10 μM in fresh media. Selected wells were also treated with staurosporine (1 μM). After 5 hours, the cells were washed twice with PBS, detached with trypsin/EDTA, harvested with 2% FBS in PBS supplemented with Trypan Blue (0.04%) for analysis on a BD FACSAria® flow cytometer. Fluorescence was evaluated as mean fluorescence intensity (MFI) and estimated <100 u.a. for untreated control cells (consistent values independently of staurosporine addition). Apoptotic cells treated with substrate 1 were used as a positive control to obtain the maximum of fluorescence signal. 50,000 events per sample were plotted in two-dimensional dot plots based on forward and side scattering. The cellular size and complexity (SSC-H vs. FSC-H) were used to gate two populations (alive/apoptotic cells) (debri excluded). The data were analysed using the software Flowjo® 7.5.
Quantification of caspase-3 in apoptotic cells by flow cytometry
Localisation of apoptotic cells by flow cytometry. Flow cytometry analysis of morphology (SSC-A) and size (FSC-A) of HEK293T cells without (left image) and with (right image) treatment with 1 µM staurosporine for 4 h.
Calculation of active caspase-3 concentration inside cells
Substrate 27 was used to quantify caspase-3 per cell.1
1. Calculate FAM-Ahx-Leu-Pro-Asp released per cell:
Fluorescein-labelled microspheres (0.5% SC, ≈ 2 mmol/g),2 were used to generate the standard curve for fluorescence intensity versus amount of the fluorophore (nmol) by flow cytometry (see below).
Kossler, S.; Nofziger, C.; Jakab, M.; Dossena, S.; Paulmichl, M. Toxicology, 2012, 292, 123-135.
2 a) A. uncit-Broceta, E.M.V. Johansson, R.M. Yusop, R.M. Sanchez-Martin and M. Bradley, Nat.
Protocol, 2012, 7, 1207-1218. b) J.M. Cardenas-Maestre and R.M. Sanchez-Martin, Org. Biomol. Chem., […]
(§1) (1 picture or pasted object on this page, not shown here)
FAM standard curve to determine conversion factor (7x109 MFI/nmol) representing FI (Fluorescence Intensity) versus FAM quantity (nmol).
To determine the concentration of FAM-Ahx-Leu-Pro-Asp released per cell (nmol/cell) = [FI/cell – FI0/cell]/7x109 FI/nmol
Assuming 20 µm cell diameter and 2/3 of that for the nucleus, the cytoplasmic volume of HEK293T cell is 3 pl (VC).1,3
FAM-Ahx-Leu-Pro-Asp released per cell (M) = FAM-Ahx-Leu-Pro-Asp released per […]
2. Calculate the rate of product formation V0 with 5 h staurosporine treatment:
V0 = d[P]/dt = FAM-Ahx-Leu-Pro-Asp released per cell (mM)/18000 sec
3. Quantify the concentration of the enzyme per cell at high substrate concentrations (enzyme saturation) […]
kcat = 0.04 s-1 (sensor 27 DLPDK)
[E] = enzyme concentration per cell (nM)
[Caspase-3] = 15.65 ± 0.46 nM (1.3 ng active caspase 3 per 106 apoptotic staurosporine- […]
3 Y. Liu, X. Yan and T. Zhou, PLOS one, 2013, 8, 8.
4. Quantify the number of molecules per cell of caspase-3
NoE (number of enzyme molecules per cell) = [E]xVCxNA […]

[2] = target: T1, caspase-7 (Homo sapiens, UniProt P55210); assay: Caspase-7-mediated cleavage at high enzyme concentration analysed by MALDI-TOF MS; type: biochemical; details: 10–20 μM substrate, 0.4 μM enzyme, 2 h, 37 °C
T1 construct: purchased R&D systems, USA
T1 sequence (P55210 24-198 limits assumed): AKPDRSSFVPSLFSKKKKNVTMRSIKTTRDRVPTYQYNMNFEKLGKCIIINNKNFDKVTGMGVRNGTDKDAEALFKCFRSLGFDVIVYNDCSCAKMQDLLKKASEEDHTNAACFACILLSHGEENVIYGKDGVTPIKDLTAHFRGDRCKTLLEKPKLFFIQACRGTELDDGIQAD
T1 sequence (P55210 207-303 limits assumed): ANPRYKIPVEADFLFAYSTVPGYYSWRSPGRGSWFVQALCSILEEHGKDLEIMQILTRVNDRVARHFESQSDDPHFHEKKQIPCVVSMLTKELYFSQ
Method: To confirm how specific 11, 12 and 14 were for caspase-3, these substrates were incubated with high enzyme concentrations (10–20 μM substrate, 0.4 μM enzyme) and the caspase-mediated cleavage analysed by MALDI-TOF MS.
S2 Fig. (A) MALDI-TOF MS spectra of substrate 11 (sequence Asp-Ala-Pro-Asp). (B) After incubation (20 µM) with Caspase-3 for 2 h. (C) After incubation (20 µM) with Caspase-7 for 2 h (detected as the PBS adduct.)
Caspase-3 or caspase-7 (R&D systems, USA) was added to 100 µL of caspase assay buffer (final enzyme concentration 0.4 µM) with the substrates at 10–20 µM. The samples were incubated in Eppendorf Thermomixer® Comfort shaking at 1200 rpm for 2h at 37 °C. MALDI -TOF mass spectra were recorded as described in Table S1 .
as §1

[3] = apoptosis induced by 1 μM staurosporine (Fig 4B)

substrate 27: FAM-Ahx-Asp-Leu-Pro-Asp-Lys(MR)-Ahx, conjugated to the cell penetrating peptoid at the C-terminus ({FAM-Ahx}-DLPDK(MethylRed)-{Ahx-peptoid}; reading uncertain; also: printed as FAM-Ahx-Asp-Leu-Pro-Asp-Lys(MR)-Ahx)
FITC + cells, apoptotic [1, 3]: 98.4% | FITC - cells, apoptotic [1, 3]: 1.57% | increase in fluorescence without staurosporine ([1]; no staurosporine, flow cytometry): no increase observed | FITC + cells, healthy ([1]; non-apoptotic cells (Fig 4A)): 7.28% | FITC - cells, healthy ([1]; non-apoptotic cells (Fig 4A)): 92.7% | increase in the fluorescence intensity of the cells after apoptotic stimulation ([1]; staurosporine 1 μM, flow cytometry λEx/Em 488/530 nm): 2.5 fold | cleavage by caspase-7 (MALDI-TOF MS) [2]: did not show any cleavage
